Measurements published in the METLIN SMRT retention time set (Domingo-Almenara et al. 2019).

Assay: gradient 5% acetonitrile 3 min, to 50% in 2 min, to 85% in 15 min, held 3 min, 100 µL/min
Conditions: column: Zorbax Extend-C18 2.1 x 50 mm; eluents: water / acetonitrile, 0.1% formic acid
Outline: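 The mobile phases were water and acetonitrile, each with 0.1% formic acid, pumped at 100 μL/min through a Zorbax Extend-C18 column (2.1 × 50 mm, 1.8 μm). Pure standards were injected as mixtures of ~100 molecules and detected by a quadrupole time-of-flight mass spectrometer in positive and negative ionization mode. Retention time came from computationally picked adduct peaks, each inspected by hand.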

Row | RP-LC retention time [s] | Structure (SMILES)
1 | 556 | CC(=O)c1cccc(NC(=O)N2CCc3nc[nH]c3C2)c1
2 | 561 | COc1ccccc1-c1[nH]ncc1CN1CCC2(CC1)CC(O)CCO2 (stereo not drawn)
3 | 688 | O=C(NC1CCN(Cc2ccccc2)CC1)c1cc2c(=O)n(Cc3ccccc3)ccc2s1
4 | 819 | COc1ccccc1NC(=O)Cn1nc2cc(C)nc(-c3ccccc3)n2c1=O
5 | 1140 | Cc1ccc(NC(=O)Cn2c(C)nc3c(sc4nc(-c5ccccc5)ccc43)c2=O)c(Cl)c1
6 | 706 | O=C(Nc1ccc2c(c1)OCO2)N1CCC(N2CCN(Cc3ccccc3)C(=O)C2=O)CC1
7 | 817 | CCn1cc(S(=O)(=O)Nc2cc(OC)cc(OC)c2)c2cccnc21
8 | 640 | O=C(O)c1ccc(N2CCN(c3ccccn3)CC2)c(NS(=O)(=O)c2cc(F)ccc2F)c1
9 | 855 | CCN1C(=O)C(C)(C(=O)Nc2ccccc2F)Oc2cccnc21 (stereo not drawn)
10 | 735 | O=C1C(=O)N(Cc2ccc(C(=O)N3CCCCC3)cc2)CCN1Cc1ccc(F)cc1
11 | 857 | COC(=O)c1c(NCCc2ccc(Cl)cc2)c2cc(F)ccc2[nH]c1=O
12 | 591 | CC(C)NC(=O)N1Cc2ccccc2OC2(CCN(C)CC2)C1
13 | 859 | Cn1cc(-c2cc3n(n2)CCC(=O)N3CCCC(=O)N2CCN(c3ccccc3)CC2)c2ccccc21
14 | 844 | Cn1cc(S(=O)(=O)N2CCC(C(=O)NC3CCCCCCC3)CC2)cc1C(=O)N1CCCC1
15 | 781 | CC(C)NC(=O)CN1C(=O)C2CCCCN2c2ccc(S(=O)(=O)N(C)C)cc21 (stereo not drawn)
16 | 569 | CC(C)Oc1ccccc1CN1CCC2(CC1)CN(C)CC2c1nnc(C(C)C)o1 (stereo not drawn)
17 | 782 | COc1ccc(NC(=O)CN2C(=O)c3ccccc3C2=O)c2ccccc12
18 | 1060 | Cc1ccc(C)c(CNC(=O)c2nc3cccnc3n(CC(C)C)c2=O)c1
19 | 1090 | COc1ccc(-n2c(=O)c3sccc3n(Cc3nc(-c4ccc(C)c(C)c4)no3)c2=O)cc1
20 | 725 | CCOC(=O)CNC(=O)N1CCC(N2CCN(Cc3cccc(C)c3)C2=O)CC1
21 | 869 | CC(C)NC(=O)c1ccc(OCC2CCCN(C(=O)c3ccc(F)c(F)c3)C2)cc1 (stereo not drawn)
22 | 947 | CCOc1ccc2nc(C(=O)NCc3ccc(C(F)(F)F)cc3)cn2n1

Row | RP-LC retention time [s] | Structure (SMILES)
23 | 728 | CCCCNC(=O)C1CCCN(C(=O)Nc2ccc(NC(=O)NC3CCCC3)cc2)C1 (stereo not drawn)
24 | 959 | COc1cccc(CNC(=O)C2(C)CCCN(C(=O)Nc3ccc(F)c(Cl)c3)C2)c1 (stereo not drawn)
25 | 744 | CCC1(O)CCC12CCN(C(=O)CC(C)C)CC2 (stereo not drawn)
26 | 700 | CCCNC(=O)C1CCN(c2ccc(SCC(=O)Nc3cc(C)ccc3OC)nn2)CC1
27 | 693 | CCC(C)NC(=O)C1CCC(=O)N(c2cc(OC)c(OC)c(OC)c2)C1c1ccc(OC)cc1 (stereo not drawn)
28 | 633 | COCCNC(=O)c1ccc(-n2nc(C)c3c2CCCC3=O)cc1
29 | 723 | Cc1ccc(CNC(=O)C2CCc3nc(N4CCOCC4)ncc3C2)cc1 (stereo not drawn)
30 | 1030 | CCc1ccc(S(=O)(=O)N2CC(c3nc(-c4ccccc4)nn3C)C2)cc1
31 | 758 | CCc1ccc(CNC(=O)Cc2nnc(-c3ccc4ncccc4c3)o2)cc1
32 | 609 | CC(=O)Nc1ccc(NC(=O)c2cc3sc(C)c(CN4CCCCC4)c3[nH]2)cc1
33 | 586 | CNC(=O)c1cnn(-c2nc(N)c3ncn([C@@H]4O[C@H](CO)C(O)C4O)c3n2)c1 (stereo partly drawn)
34 | 633 | CCC(C)NC(=O)C1CCN(C(=O)c2cc3ccsc3n2Cc2cccc(OC)c2)CC1 (stereo not drawn)
35 | 632 | O=C(NCc1cccs1)C1CCN(c2cnc3nccnc3c2)CC1
36 | 855 | COc1ccc(Nc2c(-c3ccc(C)cc3)nc3cnccn23)cc1
37 | 943 | Cc1[nH]c(C(=O)Nc2cccc(Cl)c2)c(C)c1S(=O)(=O)N1CCCC1
38 | 869 | COc1ccc(C)cc1N(C)C(=O)C1CCCN(c2ncnc3c2nc2n3CCCCC2)C1 (stereo not drawn)
39 | 904 | COc1ccc(Cc2nc(-c3cccc(-c4ccnn4C)c3)no2)cc1OC
40 | 816 | COc1ccc(CNC(=O)Cn2c(=O)c3cc(-c4cccs4)nn3c3ncccc32)cc1
41 | 733 | O=C(CC1CCN(C(=O)c2ccc3oc(C4CC4)nc3c2)CC1)NCc1ccc2c(c1)OCO2
42 | 806 | O=C(Nc1ccc(F)cc1F)N1CCC(n2cnc3cc(Cl)ccc3c2=O)CC1
43 | 613 | Cc1cnc(C2CC2)n1CCNS(=O)(=O)c1ccccc1Cl
44 | 579 | Cc1ccnc(N2CCCC(C(=O)NCC3CCN(Cc4cccc(F)c4)CC3)C2)n1 (stereo not drawn)

Row | RP-LC retention time [s] | Structure (SMILES)
45 | 687 | Cc1ccc(-c2n[nH]c3c2CN(S(=O)(=O)c2cn(C)cn2)CC3)cc1
46 | 800 | Cc1cccc(OCC(=O)Nc2c(C(=O)N3CCN(c4ccccn4)CC3)oc3ccccc23)c1
47 | 787 | CC(=O)Nc1ccc(SCc2c(F)cccc2Cl)nn1
48 | 515 | COCCn1nc2n(c1=O)CCN(Cc1cccc(OC)n1)CC2
49 | 697 | O=C(NCc1ccccc1Br)c1ccc(-c2cccnc2)nc1
50 | 784 | CC1(c2noc(C3CC3)n2)CCN(C(=O)C2CCN(S(=O)(=O)N3CCOCC3)CC2)CC1
51 | 1000 | Cc1ccc2c(c1)N(Cc1ccccc1F)N=C(C(=O)N1CCCCC1)S2(=O)=O
52 | 1060 | COc1ccccc1-c1noc(Cn2cnc3c(cnn3-c3ccc(Br)cc3)c2=O)n1
53 | 1040 | Cc1ccc(-c2noc(Cc3nc(-c4ccc(Cl)cc4)cs3)n2)cc1
54 | 675 | O=C(NCC(c1ccc2c(c1)OCO2)N1CCOCC1)C(=O)Nc1ccc(F)cc1F (stereo not drawn)
55 | 775 | CCOc1cc(C(=O)Nc2c(-c3ccccc3)nc3cc(C)ccn23)cc(OCC)c1OCC
56 | 824 | O=C(NC1CCCC1)c1ccc2c(c1)CC(=O)N2Cc1ccc(F)cc1
57 | 688 | Cc1cc(C)n(Cc2c(C(=O)NCC3Cn4cccc4C(=O)N3C)noc2C)n1 (stereo not drawn)
58 | 527 | CCOc1ccc2ncc(C(=O)c3ccccc3)c(N3CCN(C)CC3)c2c1
59 | 748 | O=C(CCc1c(-c2ccc(Cl)cc2)nc2ccccn12)Nc1ccc(F)cc1
60 | 968 | CCN1c2cc(Cl)ccc2C(=O)NC12CCN(C(=O)Nc1ccc(C)cc1C)CC2
61 | 536 | CN(CCc1ccccn1)C(=O)C1CCN(c2cn[nH]c(=O)c2)CC1
62 | 542 | O=c1cc(CN2CCN(c3ncccn3)CC2)nc2sccn12
63 | 742 | Cc1noc(C)c1CNC(=O)Cc1cccc(Cl)c1
64 | 620 | Cc1nnc(-c2ccc3ccn(CC(=O)N4CCN(C5CCCCC5)CC4)c3c2)o1
65 | 666 | Cc1nnsc1C(=O)Nc1onc2c1CSC2
66 | 1130 | Clc1ccccc1N1CCN(c2cc(-c3nc(-c4ccccc4)no3)c3ccccc3n2)CC1

Row | RP-LC retention time [s] | Structure (SMILES)
67 | 752 | O=C(Nc1ccccc1C(F)(F)F)N1CCC(N2CCN(Cc3ccc(F)cc3)C(=O)C2=O)CC1
68 | 752 | Cc1ccccc1CNC(=O)Cn1c(C)nc2onc(C)c2c1=O
69 | 913 | CC1CCc2ccccc2N1C(=O)c1cccs1 (stereo not drawn)
70 | 804 | COCCNC(=O)C1CCN(c2nc3ccc(-c4cccc(OC)c4)nc3s2)CC1
71 | 994 | Cc1ccc(-c2csc(-c3cc4c([nH]c3=O)CC(C)(C)CC4=O)n2)cc1
72 | 980 | Cc1cccc(-c2noc(C3CC(=O)N(c4ccc5c(c4)OCCO5)C3)n2)c1 (stereo not drawn)
73 | 750 | CCC(=O)N1CCc2cc(-c3ccc(C(=O)NCCc4c(C)noc4C)cc3)ccc21
74 | 836 | CCOC(=O)c1c(C)c(CCC(=O)NCc2ccc3c(c2)OCO3)n(C)c1C
75 | 984 | O=c1ccn(-c2cccc(F)c2)nc1-c1nc(-c2ccc(F)c(Cl)c2)no1
76 | 951 | Cc1cccc(N2C(=O)CN(S(C)(=O)=O)CC2(C)C(=O)NC2CCCCCCC2)c1C (stereo not drawn)
77 | 806 | Cc1ccc(CNC(=O)C2CCCN(C(=O)Cc3cccc4ccccc34)C2)o1 (stereo not drawn)
78 | 866 | O=C(Nc1nccs1)C(=O)c1c(-c2ccccc2)cc2ccccn12
79 | 670 | CCNC(=O)C1CCCN(c2nc3ncn(CC(=O)NCc4ccccc4Cl)c(=O)c3s2)C1 (stereo not drawn)
80 | 860 | O=C(CN1CCc2ccccc2C1C(=O)N1CCCC1)Nc1ccc(Cl)cc1 (stereo not drawn)
81 | 790 | Cc1nnc(NC(=O)Cc2csc(Nc3ccc(OC(F)(F)F)cc3)n2)s1
82 | 776 | CNC(=O)C1CN(S(=O)(=O)c2ccccc2)CC12CCCCC2 (stereo not drawn)
83 | 666 | O=C(NCc1ccc2c(c1)OCO2)C1CCCN(c2cnc3nccnc3c2)C1 (stereo not drawn)
84 | 853 | O=C(Cc1cccs1)N1CCCC1(CO)Cc1ccccc1 (stereo not drawn)
85 | 856 | Cc1cc(C)cc(NC(=O)C2CCN(C(=O)c3ncn4c3COC(c3ccccc3)C4)CC2)c1 (stereo not drawn)
86 | 604 | COc1cc(=O)c(C(=O)N2CCC(C(N)=O)CC2)nn1-c1ccc(C)cc1

Row | Structure (SMILES) | RP-LC retention time [s]
87 | COc1ccc(Cl)cc1NC(=O)c1cn(C)c2ncccc12 | 955
88 | CCN1CCN(C(=O)Cc2c(C(=O)O)c(C)cn2CC)CC1 | 568
